Measurements from patent US8722849B2, “Polypeptides” (Novo Nordisk A/S, priority 2011, dated 2014).
Like-named read-outs stand apart in the source and are kept apart here. Starred links: 1 amine or outer side, 2 acyl side, 3 side chain; linkers in the order of their positions; H or OH if unused. Positions of bridges follow the written chain, without caps; N, C: chain ends. Residues, ends and D or L forms follow the SMILES beside them. *: point of attachment. C20 diacid = O=C(O)CCCCCCCCCCCCCCCCCCC(=O)*; γGlu = O=C(O)[C@H](CCC(=O)[*:2])N[*:1]

Experiments:
[1] = molecular target: T1, human calcitonin receptor (Homo sapiens, UniProt P30988); test: Assay (II)a functional CRE-luciferase assay, human calcitonin receptor; assay type: cell-based
T1 construct: expressed in transfected cells; host or cells: BHK570
T1 sequence (P30988 25-474): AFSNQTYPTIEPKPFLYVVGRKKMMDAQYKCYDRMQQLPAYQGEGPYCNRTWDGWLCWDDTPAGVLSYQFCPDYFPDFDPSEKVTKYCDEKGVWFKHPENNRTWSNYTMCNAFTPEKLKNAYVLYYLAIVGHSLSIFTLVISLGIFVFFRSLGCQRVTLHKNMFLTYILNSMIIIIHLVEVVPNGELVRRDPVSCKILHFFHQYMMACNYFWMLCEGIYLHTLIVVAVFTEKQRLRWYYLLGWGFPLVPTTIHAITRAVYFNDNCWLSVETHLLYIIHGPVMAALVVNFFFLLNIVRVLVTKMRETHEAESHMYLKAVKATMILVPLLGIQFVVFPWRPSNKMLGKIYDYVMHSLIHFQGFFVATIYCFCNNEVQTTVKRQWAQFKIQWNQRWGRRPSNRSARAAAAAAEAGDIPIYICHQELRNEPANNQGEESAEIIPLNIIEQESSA
Excerpt: (§1) 1. Luciferase Assay Outline
(§2) Activation of calcitonin and amylin (coexpression of calcitonin receptor and receptor activity modifying proteins (RAMP)) receptors lead to increased intracellular concentrations of cAMP. Consequently, transcription is activated by promoters containing multiple copies of the cAMP response element (CRE). It is thus possible to measure amylin activity by the use of a CRE luciferase reporter gene introduced into BHK cells also expressing calcitonin or amylin receptors.
(§3) A BHK570 cell line was stably transfected with the human calcitonin receptor and a CRE-responsive luciferase reporter gene. The cell line was further transfected with RAMP-3, using standard methods. This turns the calcitonin receptor into an amylin 3(a) receptor. Methotrexate, Neomycin, and Hygromycin are selection markers for luciferase, the calcitonin receptor, and RAMP-3, respectively.
(§4) To perform activity assays, BHK calcitonin (a) receptor- or amylin 3(a)-receptor/CRE-luc cells were seeded in white 96 well culture plates at a density of about 20.000 cells/well. […] Further, 50 μl/well of standard or sample in assay buffer were added. After 3 hours incubation at 37° C. and 5% CO2, the assay medium with standard or sample were removed and replaced by 100 μl/well PBS. Further, 100 μl/well LucLite™ was added. The plates were sealed and incubated at room temperature for 30 minutes. Finally, luminescence was measured on a TopCounter (Packard) in SPC (single photon counting) mode.

[2] = molecular target: T2, human amylin receptor (amylin 3(a) receptor: human calcitonin receptor + RAMP-3) (Homo sapiens, UniProt O60896+P30988); test: Assay (II)a functional CRE-luciferase assay, human amylin receptor; assay type: cell-based; conditions: human amylin receptor
T2 construct: expressed in transfected cells; host or cells: BHK570
T2 sequence (P30988 25-474): T1 sequence (P30988 25-474)
T2 sequence (O60896 24-148 partner): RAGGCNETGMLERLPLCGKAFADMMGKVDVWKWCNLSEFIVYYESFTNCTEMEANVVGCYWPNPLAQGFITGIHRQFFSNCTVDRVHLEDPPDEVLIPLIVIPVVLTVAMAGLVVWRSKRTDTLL
Excerpt: as §1, §2, §3, §4

[3] = Table 7, human calcitonin (CTa) receptor

Row | EC50 [1, 3] [nM] | EC50 ([2]; Table 6) [nM] | EC50 ([1]; Table 11, read-out: CTa receptor human EC50) [nM] | EC50 ([2]; Table 7) [nM] | SMILES
1 | 0.057 | – | – | – | CC[C@H](C)[C@H](NC(=O)[C@@H]1CCCN1C(=O)CNC(=O)[C@H](Cc1ccccc1)NC(=O)[C@H](CC(N)=O)NC(=O)[C@H](CC(N)=O)NC(=O)[C@H](CO)NC(=O)[C@H](CO)NC(=O)[C@H](Cc1c[nH]cn1)NC(=O)[C@H](CCCNC(=N)N)NC(=O)[C@H](CC(C)C)NC(=O)[C@H](Cc1ccccc1)NC(=O)[C@H](CC(N)=O)NC(=O)[C@H](C)NC(=O)[C@H](CC(C)C)NC(=O)[C@H](CCCNC(=N)N)NC(=O)[C@H](CCC(N)=O)NC(=O)[C@@H](NC(=O)[C@H](C)NC(=O)[C@@H]1CSSC[C@H](NC(=O)[C@H](CCCCN)NC(=O)CC[C@H](NC(=O)CCCCCCCCCCCCCCCCCCC(=O)O)C(=O)O)C(=O)N[C@@H](CC(N)=O)C(=O)N[C@@H]([C@@H](C)O)C(=O)N[C@@H](C)C(=O)N[C@@H]([C@@H](C)O)C(=O)N1)[C@@H](C)O)C(=O)N[C@@H](CC(C)C)C(=O)N1CCC[C@H]1C(=O)N1CCC[C@H]1C(=O)N[C@H](C(=O)N[C@@H](CC(N)=O)C(=O)N[C@H](C(=O)NCC(=O)N[C@@H](CO)C(=O)N[C@@H](CC(N)=O)C(=O)N[C@H](C(=O)N1CCC[C@H]1C(N)=O)[C@@H](C)O)C(C)C)[C@@H](C)O [Example 154, N-alpha-[(S)-4-Carboxy-4-(19-carboxynonadecanoylamino)butyryl]-[Arg17,Pro37]-pramlintide] ({C20 diacid-γGlu}-KCNTATCATQRLANFLRHSSNNFGPILPPTNVGSNTP-NH2; disulfide 2-7 (inferred); C-terminus assumed)
2 | – | 0.602 | 4.3 | – | CC[C@H](C)[C@H](NC(=O)[C@@H]1CCCN1C(=O)CNC(=O)[C@H](Cc1ccccc1)NC(=O)[C@H](CC(N)=O)NC(=O)[C@H](CC(N)=O)NC(=O)[C@H](CO)NC(=O)[C@H](CO)NC(=O)[C@H](CCCNC(=N)N)NC(=O)[C@H](Cc1c[nH]cn1)NC(=O)[C@H](CC(C)C)NC(=O)[C@H](Cc1ccccc1)NC(=O)[C@H](CCC(=O)O)NC(=O)[C@H](C)NC(=O)[C@H](CC(C)C)NC(=O)[C@H](CCCNC(=N)N)NC(=O)[C@H](CCC(N)=O)NC(=O)[C@@H](NC(=O)[C@H](CCC(=O)O)NC(=O)[C@@H]1CSSC[C@H](NC(=O)[C@H](Cc2c[nH]cn2)NC(=O)CC[C@H](NC(=O)CCCCCCCCCCCCCCCCCCC(=O)O)C(=O)O)C(=O)N[C@@H](CC(N)=O)C(=O)N[C@@H]([C@@H](C)O)C(=O)N[C@@H](C)C(=O)N[C@@H]([C@@H](C)O)C(=O)N1)[C@@H](C)O)C(=O)N[C@@H](CC(C)C)C(=O)N1CCC[C@H]1C(=O)N1CCC[C@H]1C(=O)N[C@H](C(=O)N[C@@H](CC(N)=O)C(=O)N[C@H](C(=O)NCC(=O)N[C@@H](CO)C(=O)N[C@@H](CC(N)=O)C(=O)N[C@H](C(=O)N[C@@H](Cc1ccc(O)cc1)C(N)=O)[C@@H](C)O)C(C)C)[C@@H](C)O [Example 2, N-alpha-[(S)-4-Carboxy-4-(19-carboxynonadecanoylamino)butyryl]-[His1,Glu8,Glu14,His17,Arg18]-pramlintide] ({C20 diacid-γGlu}-HCNTATCETQRLAEFLHRSSNNFGPILPPTNVGSNTY-NH2; disulfide 2-7 (inferred))
3 | 0.453 | – | – | 0.129 | CC[C@H](C)[C@H](NC(=O)[C@@H]1CCCN1C(=O)CNC(=O)[C@H](Cc1ccccc1)NC(=O)[C@H](CC(N)=O)NC(=O)[C@H](CC(N)=O)NC(=O)[C@H](CO)NC(=O)[C@H](CO)NC(=O)[C@H](Cc1c[nH]cn1)NC(=O)[C@H](CCCNC(=N)N)NC(=O)[C@H](CC(C)C)NC(=O)[C@H](Cc1ccccc1)NC(=O)[C@H](CCCNC(=N)N)NC(=O)[C@H](C)NC(=O)[C@H](CC(C)C)NC(=O)[C@H](CCCNC(=N)N)NC(=O)[C@H](CCC(N)=O)NC(=O)[C@@H](NC(=O)[C@H](C)NC(=O)[C@@H]1CSSC[C@H](NC(=O)[C@H](CCCCN)NC(=O)CC[C@H](NC(=O)CCCCCCCCCCCCCCCCCCC(=O)O)C(=O)O)C(=O)N[C@@H](CC(N)=O)C(=O)N[C@@H]([C@@H](C)O)C(=O)N[C@@H](C)C(=O)N[C@@H]([C@@H](C)O)C(=O)N1)[C@@H](C)O)C(=O)N[C@@H](CC(C)C)C(=O)N1CCC[C@H]1C(=O)N1CCC[C@H]1C(=O)N[C@H](C(=O)N[C@@H](CC(N)=O)C(=O)N[C@H](C(=O)NCC(=O)N[C@@H](CO)C(=O)N[C@@H](CC(N)=O)C(=O)N[C@H](C(=O)N1CCC[C@H]1C(N)=O)[C@@H](C)O)C(C)C)[C@@H](C)O [Example 152, N-alpha-[(S)-4-Carboxy-4-(19-carboxynonadecanoylamino)butyryl]-[Arg14,Arg17,Pro37]-pramlintide] ({C20 diacid-γGlu}-KCNTATCATQRLARFLRHSSNNFGPILPPTNVGSNTP-NH2; disulfide 2-7 (inferred); C-terminus assumed)
4 | 0.041 | 0.043 | – | – | CC[C@H](C)[C@H](NC(=O)[C@@H]1CCCN1C(=O)CNC(=O)[C@H](Cc1ccccc1)NC(=O)[C@H](CC(N)=O)NC(=O)[C@H](CC(N)=O)NC(=O)[C@H](CO)NC(=O)[C@H](CO)NC(=O)[C@H](Cc1c[nH]cn1)NC(=O)[C@H](CCCNC(=N)N)NC(=O)[C@H](CC(C)C)NC(=O)[C@H](Cc1ccccc1)NC(=O)[C@H](CCC(=O)O)NC(=O)[C@H](C)NC(=O)[C@H](CC(C)C)NC(=O)[C@H](CCCNC(=N)N)NC(=O)[C@H](CCC(N)=O)NC(=O)[C@@H](NC(=O)[C@H](C)NC(=O)[C@@H]1CSSC[C@H](NC(=O)[C@H](CCCNC(=N)N)NC(=O)CNC(=O)CC[C@H](NC(=O)CCCCCCCCCCCCCCCCCCC(=O)O)C(=O)O)C(=O)N[C@@H](CC(N)=O)C(=O)N[C@@H]([C@@H](C)O)C(=O)N[C@@H](C)C(=O)N[C@@H]([C@@H](C)O)C(=O)N1)[C@@H](C)O)C(=O)N[C@@H](CC(C)C)C(=O)N1CCC[C@H]1C(=O)N1CCC[C@H]1C(=O)N[C@H](C(=O)N[C@@H](CC(N)=O)C(=O)N[C@H](C(=O)NCC(=O)N[C@@H](CO)C(=O)N[C@@H](CC(N)=O)C(=O)N[C@H](C(=O)N1CCC[C@H]1C(N)=O)[C@@H](C)O)C(C)C)[C@@H](C)O [Example 153, N-alpha-[(S)-4-Carboxy-4-(19-carboxynonadecanoylamino)butyryl]-Gly-[Arg1,Glu14,Arg17,Pro37]-pramlintide] ({C20 diacid-γGlu}-GRCNTATCATQRLAEFLRHSSNNFGPILPPTNVGSNTP-NH2; disulfide 3-8 (inferred))
